The record followed here is patent US4588729A, “Treating convulsions with dihydrouracil derivatives” (Kyowa Hakko Kogyo Co., Ltd., priority 1984, dated 1986).

The LD50 is the dose at which mortality reaches 50%. High values mean a less toxic substance, low ones a more toxic substance.

Data set [1] has as its system male dd-strain mice. Put plainly: Maximal electroshock seizure test. The format is in vivo. Conditions: Mus musculus, po, 1 h, P.O., shock 60 minutes after administration, suppression of tonic extensor in at least 3 of 5 mice, read-out: MED for anticonvulsive action, Maximal electroshock seizure test. The method, then: (1) Maximal electroshock seizure test
Groups of mice, each consisting of 5 male dd-strain mice having a weight of 20±1 g were orally administered with some of said compounds and 60 minutes thereafter, an electric current of 2,000 V, 50 mA was passed to both eyes of the mouse for 0.2 seconds to observe occurrence of tonic extensor. Suppression of tonic extensor occurrence on at least three mice was regarded as effective, and MED (minimum effective dose) for suppressing the convulsion was determined.
On the technique in general: The maximal electroshock test induces tonic seizures with an electrical stimulus.

The test system of data set [2] is male dd-strain mice. Put plainly: Pentetrazol-induced seizure test. The format is in vivo. The following applies: Mus musculus, po, P.O., 120 mg/kg pentetrazol s.c., suppression of clonic seizure in at least 3 of 5 mice, read-out: MED for anticonvulsive action, Pentetrazol-induced seizure test. The method, then:
(2) Pentetrazol-induced seizure test
Groups of mice, each consisting of 5 male dd-strain mice having a weight of 20±1 g were subcutaneously administered by 120 mg/kg of pentetrazol, and occurrence of clonic seizure was observed. Suppression of clonic seizure occurrence on at least three mice was regarded as effective, and MED was determined.

Data set [3] is described as follows: Acute toxicity test. The following applies: mouse, in vivo, po; P.O., mice, suspension in 0.3% CMC, 7 days after administration.
Data set [4] has as its system male Carworth Farm mice. Put plainly: Anticonvulsive action: MES (maximum electroconvulsive procedure) and subcutaneous pentylenetetrazole seizure tests, combined evaluation. The following applies: Mus musculus, sc, dose levels 30, 100, 300 (600) mg/kg, MES and 85 mg/kg s.c. pentylenetetrazole tests, read-out: Evaluation (anticonvulsant activity class). The format is in vivo. How it is done:
The present test was performed in male Carworth Farm mice. All compounds were tested at least 3 dose levels (30, 100, 300 mg/kg) with a fourth dose of 600 mg/kg being performed when there was sufficient quantity available. The vehicles used to solubilize each compound were 30% aqueous polyethylene glycol solution (Compound Nos. 31 to 38, 45, 47 and 48) and 0.9% saline (Compound Nos. 44 and 46). The following two tests were performed. MES (Maximum electroconvulsive procedure) Maximal electroshock seizures were elicited with a 60 cycle alternating current of 50 mA intensity (5-7 times that necessary to elicit minimal electroshock seizures) delivered for 0.2 sec via corneal electrodes. A drop of 0.9% saline was instilled in the eye prior to application of the electrodes in order to prevent the death of the animal. Abolition of the hind limb tonic extension component of the seizure was defined as protection and results were expressed as: [formula] First, 85 mg/kg of pentylenetetrazole (produces seizures in greater than 95% of mice) was administered as a 0.5% solution subcutaneously in the posterior midline. […] Failure to observe even a threshold seizure (a single episode of clonic spasms of at least 5 sec duration) was defined as protection and the results were expressed as: [formula] (2) Evaluation method All results were classified into one of the following three evaluation standard: .circle.1 Anticonvulsant activity at 100 mg/kg or less .circle.2 Anticonvulsant activity at doses greater than 100 mg/kg, or anticonvulsant activity at 100 mg/kg not reinforced by similar activity at 300 mg/kg .circle.3 No anticonvulsant activity at doses up to and including 300 mg/kg

In the case of `CN1C(=O)CCN(c2ccc(Cl)cc2)C1=O` [Compound 3, 1-(4-chlorophenyl)-3-methyl-dihydrouracil], the results for the minimal effective dose in data set [1] and in data set [2] were 75 mg/kg and 200 mg/kg, respectively. The same molecule gave an LD50 at 168 h in data set [3] of more than 300 mg/kg.

For the molecule `CN1C(=O)CCN(c2cccc(C(F)(F)F)c2)C1=O` [Compound 7, 3-methyl-1-(3-trifluoromethylphenyl)-dihydrouracil], the minimal effective dose in data set [1] and in data set [2] was 100 mg/kg in each case. Moreover, the LD50 at 168 h in data set [3] is more than 1000 mg/kg.

On to `Cc1cc(Cl)ccc1N1CCC(=O)N(C)C1=O` [Compound 9, 1-(2-methyl-4-chlorophenyl)-3-methyl-dihydrouracil], for which the values for the minimal effective dose in data set [1] and in data set [2] were 150 mg/kg and 200 mg/kg, respectively. This molecule also yielded an LD50 at 168 h in data set [3] of more than 300 mg/kg.

As for `CN1CCC(=O)N(c2cc(Cl)ccc2Cl)C1=O` [Compound 24, 3-(2,5-dichlorophenyl)-1-methyl-dihydrouracil], the minimal effective dose in data set [1] and in data set [2] was 100 mg/kg each time. In addition, in data set [3], the LD50 at 168 h is more than 300 mg/kg.

Take `CN1CCC(=O)N(c2ccccc2Cl)C1=O` [Compound 29, 3-(2-chlorophenyl)-1-methyl-dihydrouracil]: the minimal effective dose in data set [1] and in data set [2] was 150 mg/kg in each case. In addition, the LD50 at 168 h in data set [3] is more than 300 mg/kg.

Consider `CN1C(=O)CCN(c2ccc(Cl)cc2Cl)C1=O` [Compound 31, 1-(2,4-dichlorophenyl)-3-methyl-dihydrouracil], for which the values for the minimal effective dose in data set [1], in data set [4] and in data set [2] were 100 mg/kg, not above 100 mg/kg and 100 mg/kg, respectively. The molecule further yielded an LD50 at 168 h in data set [3] of more than 300 mg/kg.

Regarding `O=C1CCN(c2ccc(Cl)cc2)C(=O)N1` [Compound 32, 1-(4-chlorophenyl)-dihydrouracil], the minimal effective dose in data set [4] was more than 100 mg/kg.

For `CN1C(=O)CCN(c2ccc(C(F)(F)F)cc2)C1=O` [Compound 33, 3-methyl-1-(4-trifluoromethylphenyl)-dihydrouracil], the minimal effective dose in data set [1] is 100 mg/kg; in data set [4], not above 100 mg/kg; in data set [2] it was 300 mg/kg. For the same molecule, in data set [3], the LD50 at 168 h is more than 300 mg/kg.

Take `CN1CCC(=O)N(c2cccc(Cl)c2Cl)C1=O` [Compound 34, 3-(2,3-dichlorophenyl)-1-methyl-dihydrouracil]: the minimal effective dose in data set [1] is 150 mg/kg; in data set [4] it was not above 100 mg/kg; in data set [2], 300 mg/kg. For the same molecule, the LD50 at 168 h in data set [3] was more than 300 mg/kg.

Consider `CN1CCC(=O)N(c2ccccc2C(F)(F)F)C1=O` [Compound 35, 1-methyl-3-(2-trifluoromethylphenyl)-dihydrouracil], for which the minimal effective dose in data set [4] was more than 100 mg/kg.

Regarding `CN1CCC(=O)N(c2ccc(Cl)cc2Cl)C1=O` [Compound 36, 3-(2,4-dichlorophenyl)-1-methyl-dihydrouracil], the minimal effective dose was 100 mg/kg in data set [1], not above 100 mg/kg in data set [4] and 200 mg/kg in data set [2]. The molecule further displayed an LD50 at 168 h in data set [3] of more than 300 mg/kg.

As for `Cc1cccc(Cl)c1N1C(=O)CCN(C)C1=O` [Compound 37, 3-(2-chloro-6-methylphenyl)-1-methyl-dihydrouracil], in data set [4], the minimal effective dose is more than 100 mg/kg.

With `CN1CCC(=O)N(c2ccccc2F)C1=O` [Compound 38, 3-(2-fluorophenyl)-1-methyl-dihydrouracil], the minimal effective dose in data set [4] is more than 100 mg/kg.

Take `CN1C(=O)CCN(c2ccc(N)cc2)C1=O.Cl` [Compound 44, 1-(4-aminophenyl)-3-methyl-dihydrouracil hydrochloride]: the minimal effective dose in data set [4] was not above 100 mg/kg.

On to `CN1CCC(=O)N(c2ccccc2[N+](=O)[O-])C1=O` [Compound 45, 1-methyl-3-(2-nitrophenyl)-dihydrouracil], for which the minimal effective dose in data set [4] was more than 100 mg/kg.

Take `CN1CCC(=O)N(c2ccccc2N)C1=O.Cl` [Compound 46, 3-(2-aminophenyl)-1-methyl-dihydrouracil hydrochloride]: the minimal effective dose in data set [4] was more than 100 mg/kg.

In the case of `CN1CCC(=O)N(c2cccc3ccccc23)C1=O` [Compound 47, 1-methyl-3-α-naphthyl-dihydrouracil], the values for the minimal effective dose in data set [1], in data set [4] and in data set [2] were 100 mg/kg, not above 100 mg/kg and 200 mg/kg, respectively. Further, in data set [3], the LD50 at 168 h is more than 300 mg/kg.

Regarding `CCOC(=O)c1ccccc1N1C(=O)CCN(C)C1=O` [Compound 48, 3-(2-ethoxycarbonylphenyl)-1-methyl-dihydrouracil], the minimal effective dose in data set [4] was not above 100 mg/kg.
